Measurements as given in US20220183282A1, “Fatty Acid Derivatives For Improving The Effect Of Agrochemical Actives” (priority 2019, published 2022).
Like-named read-outs stand apart in the source and are kept apart here.

How the values were obtained:
apple leaf cuticles [1] = experiment: Penetration of Flufenacet through isolated apple leaf cuticles in the presence of test substances; settings: for Mean penetration for Flufenacet after time: Flufenacet 0.75 g/L in spray liquid, 10° C./61% rel. air humidity
From the text: (§1) Surfactants can affect the absorption of (active) ingredients through membranes such as skin, films or the plant cuticle. As a “finite-dose” application, it is known for the single administration or application of a solution, cream, gel etc. to a membrane that the absorption of active ingredient can be influenced by some additives such as surfactants even after wetting.
(§2) The principle of the method has been published and described in detail e.g. in WO-A-2005/194844 or WO2017211572 A1). The leaf cuticles were enzymatically isolated in the manner described in the literature from apple leaves of orchard trees in a commercial stone fruit growing facility near Frankfurt am Main in 2017. The stomata-free cuticles were first dried under air and then installed into stainless steel diffusion cells. After application to the original upper side of the leaf and evaporation of the test liquid, i.e. of the spray liquids of the active ingredients with or without the inventive substances or comparative compositions, the diffusion cells were transferred into thermostated blocks and charged with aqueous liquid. The water used to make up the aqueous test liquids was local tap water (of known composition). At regular intervals, aliquot samples were taken and the proportion of active ingredient penetrated was determined by HPLC or alternatively by radio-chemical method where radio-labelled active ingredient was used as tracer to determine the concentration. During the experiment, the temperature in the system (block, diffusion cells, liquids, etc.) and the air humidity above the spray deposit on the cuticle were controlled. […] The analytical determination by means of HPLC (1290 Infinity, Agilent) was effected thereafter with a Kinetex column 30×2, 1 mm, 2.6μ C18 100 A (Phenomenex), taking a 20 μL aliquot as injection volume at the specified times. In each case, the geometric mean values of the penetration for intact membranes at the mean measurement times are given.

apple leaf cuticles [2] = experiment: Penetration of Imidacloprid through isolated apple leaf cuticles in the presence of test substances; settings: for Mean penetration for Imidacloprid after time: Imidacloprid 0.5 g/L in spray liquid
From the text: as §1
(§3) The principle of the method has been published and described in detail e.g. in WO-A-2005/194844 or WO2017211572 A1). The leaf cuticles were enzymatically isolated in the manner described in the literature from apple leaves of orchard trees in a commercial stone fruit growing facility near Frankfurt am Main in 2017. The stomata-free cuticles were first dried under air and then installed into stainless steel diffusion cells. After application to the original upper side of the leaf and evaporation of the test liquid, i.e. of the spray liquids of the active ingredients with or without the inventive substances or comparative compositions, the diffusion cells were transferred into thermostated blocks and charged with aqueous liquid. The water used to make up the aqueous test liquids was local tap water (of known composition). At regular intervals, aliquot samples were taken and the proportion of active ingredient penetrated was determined by HPLC or alternatively by radio-chemical method where radio-labelled active ingredient was used as tracer to determine the concentration. During the experiment, the temperature in the system (block, diffusion cells, liquids, etc.) and the air humidity above the spray deposit on the cuticle were controlled. In the experiment, relative air humidity was constant throughout at 56% relative air humidity (air over supersaturated calcium nitrate) at a constant 10° C. or 25° C. The analytical determination by means of HPLC (1290 Infinity, Agilent) was effected thereafter with a Kinetex column 30×2, 1 mm, 2.6μ C18 100 A (Phenomenex), taking a 20 μL aliquot as injection volume at the specified times. In each case, the geometric mean values of the penetration for intact membranes at the mean measurement times are given.

apple leaf cuticles [3] = experiment: Penetration of Mesotrione through isolated apple leaf cuticles in the presence of test substances
From the text: as §1
as §3, with “In each case, the geometric mean values of the penetration for intact membranes at the mean measurement times are given.” left out

[4] = Dynamic surface tension, bubble pressure method (BP2100 tensiometer, Krüss); format: physicochemical
Description: Dynamic surface tension was determined via the bubble pressure method (BP2100 tensiometer, Krüss). Given a timespan of relevance for the spray application of agrochemicals in aqueous dilution (called the surface age in the bubble pressure method) of 200 milliseconds (ms), the value for dynamic surface tension in [mN/m] correlates with the adhesion on plants that are difficult to wet, such as barley (cereal). A value of 50 mN/m (at 20-21° C.) with respect to water (72.8 mN/m) results in an improvement in the adhesion from “zero adhesion” (0%) to about 50% (Baur P., Pontzen R.; 2007; Basic features of plant surface wettability and deposit formation and the impact of adjuvant; in R. E. Gaskin ed. Proceedings of the 8th International Symposium on Adjuvants for Agrochemicals; Publisher: International Society for Agrochemical Adjuvants (ISAA), Columbus, Ohio, USA).

apple leaf cuticles [5] = experiment: Penetration of MCPA through isolated apple leaf cuticles in the presence of test substances; settings: for Mean penetration for MCPA after time: MCPA 1.5 g/L in spray liquid, 25° C./56% rel. air humidity
From the text: as §1, §3

apple leaf cuticles [6] = settings: for Mean penetration for Benzyladenine after time: Benzyladenine 0.1 g/L in spray liquid
From the text: as §1, §3

apple leaf cuticles [7] = experiment: Penetration of Mesosulfuron-methyl through isolated apple leaf cuticles in the presence of test substances; format: in vitro ADME; settings: for Mean penetration for Mesosulfuron-methyl after time: Mesosulfuron-methyl 0.1 g/L in spray liquid, 10° C./61% rel. air humidity
From the text: as §1, §2

**Q.** For `CCCCCCCCC(=O)OCCOCCOCCOCCOCCOCCOC` [A1, Pelargonic acid 6 EO ester methyl ether], which “Mean penetration for Flufenacet after time” value (apple leaf cuticles [1]; test substance 1.0 g/L, 1 day) is on record?
**A.** 10.7%

**Q.** And the “Mean penetration for Flufenacet after time” value (apple leaf cuticles [1]; test substance 1.0 g/L, 2 days)?
**A.** 16.9%

**Q.** What about the “Mean penetration for Flufenacet after time” value (apple leaf cuticles [1]; test substance 10 g/L, 1 day) of the same compound?
**A.** 18.2%

**Q.** What about the “Mean penetration for Flufenacet after time” value (apple leaf cuticles [1]; test substance 10 g/L, 2 days) of the same compound?
**A.** 28.0%

**Q.** What about the “uptake of the active ingredient (Flufenacet), in words” value (apple leaf cuticles [1]; summary of Table 4, compared to the commercial formulation) of the same compound?
**A.** strongly increases the uptake

**Q.** And the “Mean penetration for Imidacloprid after time” value (apple leaf cuticles [2]; test substance 0.3 g/L, 1 day)?
**A.** 2.8%

**Q.** And the “Mean penetration for Imidacloprid after time” value (apple leaf cuticles [2]; test substance 0.3 g/L, 4 days)?
**A.** 3.8%

**Q.** And the “Mean penetration for Imidacloprid after time” value (apple leaf cuticles [2]; test substance 1.0 g/L, 1 day)?
**A.** 31.7%

**Q.** What about the “Mean penetration for Imidacloprid after time” value (apple leaf cuticles [2]; test substance 1.0 g/L, 4 days) of the same compound?
**A.** 38.2%

**Q.** What about the “uptake of the agrochemical active (Imidacloprid), in words” value (apple leaf cuticles [2]; summary of Table 8) of the same compound?
**A.** strongly increases the uptake

**Q.** What about the “uptake of the active ingredient (Mesotrione), in words” value (apple leaf cuticles [3]) of the same compound?
**A.** increases the uptake

**Q.** And the “Dynamic Surface tension” value ([4]; 0.3 g/L, 20 ms)?
**A.** 61.2 mN/m

**Q.** And the “Dynamic Surface tension” value ([4]; 0.3 g/L, 50 ms)?
**A.** 57.3 mN/m

**Q.** And the “Dynamic Surface tension” value ([4]; 0.3 g/L, 100 ms)?
**A.** 54.4 mN/m

**Q.** What about the “Dynamic Surface tension” value ([4]; 0.3 g/L, 200 ms) of the same compound?
**A.** 51.5 mN/m

**Q.** What about the “Dynamic Surface tension” value ([4]; 1 g/L, 20 ms) of the same compound?
**A.** 47.6 mN/m

**Q.** And the “Dynamic Surface tension” value ([4]; 1 g/L, 50 ms)?
**A.** 44.5 mN/m

**Q.** And the “Dynamic Surface tension” value ([4]; 1 g/L, 100 ms)?
**A.** 42.1 mN/m

**Q.** What about the “Dynamic Surface tension” value ([4]; 1 g/L, 200 ms) of the same compound?
**A.** 39.8 mN/m

**Q.** And the “Dynamic Surface tension” value ([4]; 3 g/L, 20 ms)?
**A.** 33.7 mN/m

**Q.** And the “Dynamic Surface tension” value ([4]; 3 g/L, 50 ms)?
**A.** 32.0 mN/m

**Q.** What about the “Dynamic Surface tension” value ([4]; 3 g/L, 100 ms) of the same compound?
**A.** 30.8 mN/m

**Q.** What about the “Dynamic Surface tension” value ([4]; 3 g/L, 200 ms) of the same compound?
**A.** 29.5 mN/m

**Q.** What about the “Dynamic Surface tension” value ([4]; 10 g/L, 20 ms) of the same compound?
**A.** 30.2 mN/m

**Q.** And the “Dynamic Surface tension” value ([4]; 10 g/L, 50 ms)?
**A.** 29.3 mN/m

**Q.** What about the “Dynamic Surface tension” value ([4]; 10 g/L, 100 ms) of the same compound?
**A.** 28.6 mN/m

**Q.** What about the “Dynamic Surface tension” value ([4]; 10 g/L, 200 ms) of the same compound?
**A.** 27.9 mN/m

**Q.** And the “Mean penetration for MCPA after time” value (apple leaf cuticles [5]; test substance 0.3 g/L, 0.5 day)?
**A.** 34.2%

**Q.** And the “Mean penetration for MCPA after time” value (apple leaf cuticles [5]; test substance 0.3 g/L, 1 day)?
**A.** 45.5%

**Q.** What about the “Mean penetration for MCPA after time” value (apple leaf cuticles [5]; test substance 1.0 g/L, 0.5 day) of the same compound?
**A.** 46.9%

**Q.** What about the “Mean penetration for MCPA after time” value (apple leaf cuticles [5]; test substance 1.0 g/L, 1 day) of the same compound?
**A.** 53.9%

**Q.** What about the “uptake of the active ingredient (MCPA), in words” value (apple leaf cuticles [5]; summary of Table 3) of the same compound?
**A.** strongly increases the uptake

**Q.** And the “Mean penetration for Benzyladenine after time” value (apple leaf cuticles [6]; test substance 0.3 g/L, 1 day)?
**A.** 4.2%

**Q.** What about the “Mean penetration for Benzyladenine after time” value (apple leaf cuticles [6]; test substance 0.3 g/L, 2 days) of the same compound?
**A.** 4.5%

**Q.** What about the “Mean penetration for Benzyladenine after time” value (apple leaf cuticles [6]; test substance 0.8 g/L, 1 day) of the same compound?
**A.** 9.7%

**Q.** And the “Mean penetration for Benzyladenine after time” value (apple leaf cuticles [6]; test substance 0.8 g/L, 2 days)?
**A.** 10.6%

**Q.** What about the “Mean penetration for Benzyladenine after time” value (apple leaf cuticles [6]; test substance 1.5 g/L, 1 day) of the same compound?
**A.** 17.2%

**Q.** What about the “Mean penetration for Benzyladenine after time” value (apple leaf cuticles [6]; test substance 1.5 g/L, 2 days) of the same compound?
**A.** 17.9%

**Q.** What about the “Mean penetration for Benzyladenine after time” value (apple leaf cuticles [6]; test substance 3.0 g/L, 1 day) of the same compound?
**A.** 17.9%

**Q.** And the “Mean penetration for Benzyladenine after time” value (apple leaf cuticles [6]; test substance 3.0 g/L, 2 days)?
**A.** 18.6%

**Q.** And the “uptake of the agrochemical active (Benzyladenine), in words” value (apple leaf cuticles [6]; summary of Table 10)?
**A.** strongly increases the uptake

**Q.** And the “Mean penetration for Mesosulfuron-methyl after time” value (apple leaf cuticles [7]; test substance 1.0 g/L, 1 day)?
**A.** 1.9%

**Q.** What about the “Mean penetration for Mesosulfuron-methyl after time” value (apple leaf cuticles [7]; test substance 1.0 g/L, 2 days) of the same compound?
**A.** 3.6%

**Q.** What about the “Mean penetration for Mesosulfuron-methyl after time” value (apple leaf cuticles [7]; test substance 3.0 g/L, 1 day) of the same compound?
**A.** 4.2%

**Q.** What about the “Mean penetration for Mesosulfuron-methyl after time” value (apple leaf cuticles [7]; test substance 3.0 g/L, 2 days) of the same compound?
**A.** 5.2%

**Q.** And the “Mean penetration for Mesosulfuron-methyl after time” value (apple leaf cuticles [7]; test substance 10 g/L, 1 day)?
**A.** 9.2%

**Q.** What about the “Mean penetration for Mesosulfuron-methyl after time” value (apple leaf cuticles [7]; test substance 10 g/L, 2 days) of the same compound?
**A.** 10.9%

**Q.** What about the “uptake of the active ingredient (Mesosulfuron-methyl), in words” value (apple leaf cuticles [7]; summary of Table 5) of the same compound?
**A.** strongly increases the uptake
